Test [1] has as its target T1, Cbl-b (Homo sapiens, UniProt Q13191). Description: Cbl-b inhibition assay (Cbl-b activity assay, FRET, Biological Example 1; 100 mM NaCl, 60 nM Src kinase). Format: biochemical. To be noted: upper bound stated in text lists; read-out: IC50 values in the Cbl-b inhibition assay of Biological Example 1. In outline: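 Binding-based Cbl-b activity assay. Src-phosphorylated, N-terminally biotin-Avi-tagged Cbl-b recruits labelled UbcH5B-Ub, and proximity to streptavidin-terbium yields FRET.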

The subject of test [2] is T-cell. The test can be described thus: IL-2 secretion from T-cells stimulated with anti-CD3 antibody alone (Biological Example 2). The format is cell-based. As to conditions: primary human total T-cells, read-out: IL-2 secretion, Anti-CD3 stimulation, fold change over baseline; for fold induction at 1 µM: 1 μM compound; for fold induction at 8 µM: 8 μM compound.
The subject of test [3] is T-cell. Description: CD25 cell surface staining on T-cells stimulated with anti-CD3 antibody alone (Biological Example 2). Format: cell-based. To be noted: primary human total T-cells, baseline = anti-CD3/anti-CD28 stimulated cells without inhibitor, read-out: CD25 staining, Anti-CD3 stimulation, fold change over baseline; for fold induction at 1 µM: 1 μM compound; for fold induction at 8 µM: 8 μM compound.

Test [4] concerns T-cell. The test can be described thus: CD25 cell surface staining on T-cells co-stimulated with anti-CD3 and anti-CD28 antibody (Biological Example 2). The format is cell-based, human. To be noted: Homo sapiens, T-cell, primary human total T-cells, baseline = anti-CD3/anti-CD28 stimulated cells without inhibitor, read-out: CD25 staining, Anti-CD3/Anti-CD28 stimulation, fold change over baseline; for fold induction at 0.3 µM: 0.3 μM compound; for fold induction at 1 µM: 1 μM compound; for fold induction at 4 µM: 4 μM compound. The method, boiled down: (§1)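 No assay protocol given; T-cells stimulated with anti-CD3 alone or anti-CD3 plus anti-CD28, with or without Cbl-b inhibitor. Activation read as IL-2 secretion or CD25 surface staining, expressed as fold over baseline from uninhibited cells […].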

Test [5] deals with T-cell. The test can be described thus: IL-2 secretion from T-cells co-stimulated with anti-CD3 and anti-CD28 antibody (Biological Example 2). The format is cell-based, human. As to conditions: Homo sapiens, T-cell, primary human total T-cells, baseline = anti-CD3/anti-CD28 stimulated cells without inhibitor, read-out: IL-2 secretion, Anti-CD3/Anti-CD28 stimulation, fold change over baseline; for fold induction at 0.3 µM: 0.3 μM compound; for fold induction at 1 µM: 1 μM compound; for fold induction at 4 µM: 4 μM compound. The method, boiled down:
as §1

In test [6] the target is T1, Cbl-b. The test can be described thus: Cbl-b activity assay (Cbl-b inhibition assay), TR-FRET of Cbl-b interaction with UbcH5B-Ub. To be noted: assay buffer with 100 mM NaCl, 60 nM Src kinase; read-out: Cbl-b activity IC50. The format is biochemical. In outline: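 TR-FRET readout of Cbl-b binding to Bodipy-fluorescein N-terminally labeled Ub conjugated to UbcH5B C85K, measured with compound present. After compound incubation, 60 nM Src kinase with 1 mM ATP and 5 mM MgCl2 (final) was added for 1.5 h, then a further 1 h incubation; asterisked values used 50 mM NaCl buffer and 30 nM Src.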

T1 sequence (Q13191 36-427): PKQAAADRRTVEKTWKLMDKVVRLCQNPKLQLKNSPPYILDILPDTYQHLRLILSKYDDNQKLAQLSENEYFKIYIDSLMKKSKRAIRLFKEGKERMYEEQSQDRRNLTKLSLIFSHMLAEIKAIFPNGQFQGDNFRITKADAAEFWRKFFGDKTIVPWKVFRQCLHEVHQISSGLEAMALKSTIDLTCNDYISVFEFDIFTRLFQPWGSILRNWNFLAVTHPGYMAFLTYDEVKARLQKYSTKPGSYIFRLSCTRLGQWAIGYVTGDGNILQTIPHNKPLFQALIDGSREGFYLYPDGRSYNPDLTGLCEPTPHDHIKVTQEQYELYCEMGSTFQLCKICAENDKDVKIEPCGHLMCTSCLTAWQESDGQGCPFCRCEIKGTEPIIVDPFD

Usually IC50 stands for the point on the concentration scale where inhibition reaches its midpoint. As to `Cn1cnnc1[C@@H]1C[C@@H]1c1cccc(N2Cc3c(cc(CN4CC[C@H](F)C4)cc3C(F)(F)F)C2=O)c1` [Compound 409, 6-(((S)-3-fluoropyrrolidin-1-yl)methyl)-2-(3-((1S,2R)-2-(4-methyl-4H-1,2,4-triazol-3-yl)cyclopropyl)phenyl)-4-(trifluoromethyl)isoindolin-1-one], the IC50 in test [1] is at most 100 nM; in test [6], below 100 nM. Also, the fold induction at 1 µM in test [2] was above 0.201; in test [3], above 1; in test [4] it was 1.31 to 1.5; in test [5], above 7.5. Besides, the fold induction at 8 µM in test [2] was above 0.201; in test [3], above 1. Besides, the fold induction at 0.3 µM in test [4] is 1.31 to 1.5; in test [5] it was 2.51 to 5. Further, the fold induction at 4 µM was 1.51 to 1.75 in test [4] and above 7.5 in test [5].
Consider `Cn1cnnc1CC1(c2cccc(N3Cc4c(cc(CN5C[C@@H](F)[C@@H](F)C5)cc4C(F)(F)F)C3=O)c2)COC1` [Compound 414, 6-((cis-3,4-Difluoropyrrolidin-1-yl)methyl)-2-(3-(3-((4-methyl-4H-1,2,4-triazol-3-yl)methyl)oxetan-3-yl)phenyl)-4-(trifluoromethyl)isoindolin-1-one], for which the IC50 is at most 100 nM in test [1] and below 100 nM in test [6]. In addition, the fold induction at 1 µM in test [2] was 0.151 to 0.2; in test [3] it was 0.801 to 1; in test [4], 1.31 to 1.5; in test [5] it was above 7.5. Also, the results for the fold induction at 8 µM in test [2] and in test [3] were above 0.201 and above 1, respectively. For the same compound, the fold induction at 0.3 µM in test [4] is 1.31 to 1.5; in test [5] it was above 7.5. Also, the fold induction at 4 µM in test [4] was 1.51 to 1.75; in test [5], above 7.5.
With `C[C@H](c1cc2c(c(C(F)(F)F)c1)CN(c1cccc(C3(Cc4nncn4C)COC3)c1)C2=O)N1CCC(F)(F)C1` [Compound 419, (R)-6-(1-(3,3-difluoropyrrolidin-1-yl)ethyl)-2-(3-(3-((4-methyl-4H-1,2,4-triazol-3-yl)methyl)oxetan-3-yl)phenyl)-4-(trifluoromethyl)isoindolin-1-one], the values for the IC50 in test [1] and in test [6] were at most 100 nM and below 100 nM, respectively. The fold induction at 1 µM in test [2] is 0.151 to 0.2; in test [3], above 1; in test [4], 1.31 to 1.5; in test [5] it was above 7.5. Further, the fold induction at 8 µM was above 0.201 in test [2] and above 1 in test [3]. Further, the results for the fold induction at 0.3 µM in test [4] and in test [5] were 1.01 to 1.3 and 2.51 to 5, respectively. For the same compound, the figures for the fold induction at 4 µM in test [4] and in test [5] were 1.31 to 1.5 and above 7.5, respectively.
As for `C[C@@H](c1cc2c(c(C(F)(F)F)c1)CN(c1cccc(C3(Cc4nncn4C)COC3)c1)C2=O)N1CCC(F)(F)C1` [Compound 420, (S)-6-(1-(3,3-difluoropyrrolidin-1-yl)ethyl)-2-(3-(3-((4-methyl-4H-1,2,4-triazol-3-yl)methyl)oxetan-3-yl)phenyl)-4-(trifluoromethyl)isoindolin-1-one], the IC50 was at most 100 nM in test [1] and below 100 nM in test [6]. The fold induction at 1 µM was 0.151 to 0.2 in test [2], above 1 in test [3], 1.31 to 1.5 in test [4] and above 7.5 in test [5]. Besides, the fold induction at 8 µM is above 0.201 in test [2] and above 1 in test [3]. The fold induction at 0.3 µM in test [4] is 1.31 to 1.5; in test [5] it was 2.51 to 5. Also, the fold induction at 4 µM in test [4] was 1.31 to 1.5; in test [5] it was above 7.5.

Values taken from patent US20220324835A1 (Nurix Therapeutics, Inc., priority 2018, published 2022).
